According to PMC9870890 (Nature Communications, 2023):
“And” between values parts separate entries of the source, which are not always exact repeats. Equal entries are not always repeated. Where two headings read alike, the source gives them in different places.

Biological target: T1, M2R (Homo sapiens, UniProt P08172)
T1 sequence (P08172 1-466): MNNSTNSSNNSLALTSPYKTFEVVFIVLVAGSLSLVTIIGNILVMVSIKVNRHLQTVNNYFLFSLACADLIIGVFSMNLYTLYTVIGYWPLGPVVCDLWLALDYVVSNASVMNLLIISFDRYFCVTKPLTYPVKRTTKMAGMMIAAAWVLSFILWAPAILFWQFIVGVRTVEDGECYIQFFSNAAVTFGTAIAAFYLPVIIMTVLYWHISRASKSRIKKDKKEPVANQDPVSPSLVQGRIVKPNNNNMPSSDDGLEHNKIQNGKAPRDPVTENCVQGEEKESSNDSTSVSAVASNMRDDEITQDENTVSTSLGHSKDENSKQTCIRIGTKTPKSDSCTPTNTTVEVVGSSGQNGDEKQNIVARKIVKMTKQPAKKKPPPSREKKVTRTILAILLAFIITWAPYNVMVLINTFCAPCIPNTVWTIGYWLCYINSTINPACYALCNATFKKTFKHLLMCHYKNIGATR
Assay: cell-based
Parameters: expressed in transfected cells; host or cells: HEK 293T
Conditions: for Emax: HEK-293T
Protocol: Determination of β-arrestin-2 recruitment was performed applying the PathHunter assay (DiscoverX, Birmingham, U.K.) which is based on fragment complementation of β-galactosidase as described. In detail, HEK293T cells were transfected with the flag-tagged M2 receptor carrying the PKA fragment for enzyme complementation and transferred into 384-well micro plates. […] Determination of chemoluminescence was done with a Clariostar plate reader (BMG, Ortenberg, Germany). […] Normalized curves from three to five individual experiments each done in duplicate were analyzed by non-linear regression applying the algorithms in Prism 8.0 (GraphPad, San Diego, CA) to get dose-response curves representing average EC50 and Emax value.

SMILES: C[N+](C)(C)CC#CCOC1=NOCC1 [Ixo, iperoxo]
- EC50: 350 ± 80 pM
- Emax (read-out: Emax in % of acetylcholin, arrestin recruitment by iperoxo, agonist + 0.1 µM LY): 168%
- Emax (read-out: Emax in % of acetylcholin, arrestin recruitment by iperoxo, agonist + 3 µM LY): 172%
- Emax (read-out: Emax in % of acetylcholin, arrestin recruitment by iperoxo, agonist + 30 µM LY): 170%
- Emax (read-out: Emax in % of acetylcholin, arrestin recruitment by iperoxo, agonist + 100 µM LY): 170%
- Emax (read-out: arrestin recruitment as % max effect of acetylcholin, iperoxo log [M] 3-6): 135%
- Emax (read-out: arrestin recruitment as % max effect of acetylcholin, iperoxo log [M] 3-7): 142%
- Emax (read-out: arrestin recruitment as % max effect of acetylcholin, iperoxo log [M] 3-8): 138%
- Emax (read-out: arrestin recruitment as % max effect of acetylcholin, iperoxo log [M] 3-8 + 1µM LY2119620): 150%
- Emax (read-out: arrestin recruitment as % max effect of acetylcholin, iperoxo log [M] 3-8 + 10µM LY2119620): 154%
- Emax (read-out: arrestin recruitment as % max effect of acetylcholin, iperoxo log [M] 3-8 + 30µM LY2119620): 168%
- Emax (read-out: arrestin recruitment as % max effect of acetylcholin, iperoxo log [M] 3-8 + 100µM LY2119620): 160%
- Emax (read-out: arrestin recruitment as % max effect of acetylcholin, iperoxo log [M] 3-9 + 0.1µM LY2119620): 160%
- Emax (read-out: arrestin recruitment as % max effect of acetylcholin, iperoxo log [M] 3-9 + 3µM LY2119620): 166%
- Emax (read-out: arrestin recruitment as % max effect of acetylcholin, iperoxo log [M] 3-9 + 30µM LY2119620): 175%
- Emax (read-out: arrestin recruitment as % max effect of acetylcholin, iperoxo log [M] 3-9 + 100µM LY2119620): 159%
- Emax (read-out: arrestin recruitment as % max effect of acetylcholin, iperoxo log [M] 3-10 + 30µM LY2119620): 141%
- Emax (read-out: arrestin recruitment as % max effect of acetylcholin, iperoxo log [M] 3-10 + 100µM LY2119620): 125%
- Emax (read-out: arrestin recruitment as % max effect of acetylcholin, iperoxo log [M] 3-11 + 0.1µM LY2119620): 19.4%
- Emax (read-out: arrestin recruitment as % max effect of acetylcholin, iperoxo log [M] 3-11 + 1µM LY2119620): 30.8%
- Emax (read-out: arrestin recruitment as % max effect of acetylcholin, iperoxo log [M] 3-11 + 3µM LY2119620): 72.1%
- Emax (read-out: arrestin recruitment as % max effect of acetylcholin, iperoxo log [M] 3-11 + 10µM LY2119620): 77.5%
- Emax (read-out: arrestin recruitment as % max effect of acetylcholin, iperoxo log [M] 3-11 + 100µM LY2119620): 58.2%
- Emax (read-out: arrestin recruitment as % max effect of acetylcholin, iperoxo log [M] -5): 152%
- Emax (read-out: arrestin recruitment as % max effect of acetylcholin, iperoxo log [M] -6 + 0.1µM LY2119620): 163%
- Emax (read-out: arrestin recruitment as % max effect of acetylcholin, iperoxo log [M] -6 + 1µM LY2119620): 142%
- Emax (read-out: arrestin recruitment as % max effect of acetylcholin, iperoxo log [M] -6 + 3µM LY2119620): 170%
- Emax (read-out: arrestin recruitment as % max effect of acetylcholin, iperoxo log [M] -6 + 10µM LY2119620): 155%
- Emax (read-out: arrestin recruitment as % max effect of acetylcholin, iperoxo log [M] -6 + 30µM LY2119620): 180%
- Emax (read-out: arrestin recruitment as % max effect of acetylcholin, iperoxo log [M] -6 + 100µM LY2119620): 166%
- Emax (read-out: arrestin recruitment as % max effect of acetylcholin, iperoxo log [M] -7 + 30µM LY2119620): 168%
- Emax (read-out: arrestin recruitment as % max effect of acetylcholin, iperoxo log [M] -7 + 100µM LY2119620): 161%
- Emax (read-out: arrestin recruitment as % max effect of acetylcholin, iperoxo log [M] -8 + 0.1µM LY2119620): 162%
- Emax (read-out: arrestin recruitment as % max effect of acetylcholin, iperoxo log [M] -8 + 3µM LY2119620): 149%
- Emax (read-out: arrestin recruitment as % max effect of acetylcholin, iperoxo log [M] -8 + 30µM LY2119620): 176%
- Emax (read-out: arrestin recruitment as % max effect of acetylcholin, iperoxo log [M] -8 + 100µM LY2119620): 160%
- Emax (read-out: arrestin recruitment as % max effect of acetylcholin, iperoxo log [M] -10 + 3µM LY2119620): 105%
- Emax (read-out: arrestin recruitment as % max effect of acetylcholin, iperoxo log [M] -10 + 100µM LY2119620): 89%
- Emax (read-out: arrestin recruitment as % max effect of acetylcholin, iperoxo log [M] -11 + 3µM LY2119620): 44.6%
- Emax (read-out: arrestin recruitment as % max effect of acetylcholin, iperoxo log [M] -11 + 30µM LY2119620): 75.7%
- Emax (read-out: arrestin recruitment as % max effect of acetylcholin, iperoxo log [M] -11 + 100µM LY2119620): 58.6%
- Emax (read-out: arrestin recruitment as % max effect of acetylcholin, iperoxo log [M] -12 + 3µM LY2119620): 37.8%
- Emax (read-out: arrestin recruitment as % max effect of acetylcholin, iperoxo log [M] -12 + 100µM LY2119620): 62.6%
- Emax (read-out: arrestin recruitment as % max effect of acetylcholin, iperoxo log [M] -13 + 3µM LY2119620): 33%
- Emax (read-out: arrestin recruitment as % max effect of acetylcholin, iperoxo log [M] -13 + 10µM LY2119620): 26.7%
- Emax (read-out: arrestin recruitment as % max effect of acetylcholin, iperoxo log [M] -13 + 30µM LY2119620): 59.3%
- Emax (read-out: arrestin recruitment as % max effect of acetylcholin, iperoxo log [M] -13 + 100µM LY2119620): 44.2%
- Emax (read-out: enhancement of efficacy (Emax) in β-arrestin recruitment, presence of high concentration of LY2119620): ~15%
- arrestin recruitment as % max effect of acetylcholin (iperoxo log [M] 3-9): 135.8% and 120.8% and 147.9% and 130.1%
- arrestin recruitment as % max effect of acetylcholin (iperoxo log [M] 3-9 + 0.1µM LY2119620): 156.9%
- arrestin recruitment as % max effect of acetylcholin (iperoxo log [M] 3-9 + 1µM LY2119620): 109.3% and 162.2% and 161.4% and 201.0%
- arrestin recruitment as % max effect of acetylcholin (iperoxo log [M] 3-9 + 10µM LY2119620): 130.3% and 161.0% and 169.5%
- arrestin recruitment as % max effect of acetylcholin (iperoxo log [M] 3-9 + 30µM LY2119620): 168.8% and 163.9%
- arrestin recruitment as % max effect of acetylcholin (iperoxo log [M] 3-10 + 0.1µM LY2119620): 82.7% and 92.1% and 124.5%
- arrestin recruitment as % max effect of acetylcholin (iperoxo log [M] 3-10 + 3µM LY2119620): 147.1% and 158.1% and 137.1% and 138.5%
- arrestin recruitment as % max effect of acetylcholin (iperoxo log [M] 3-10 + 10µM LY2119620): 103.3% and 152.4% and 152.5% and 133.9%
- arrestin recruitment as % max effect of acetylcholin (iperoxo log [M] 3-10 + 30µM LY2119620): 133.2% and 130.6% and 122.9%
- arrestin recruitment as % max effect of acetylcholin (iperoxo log [M] 3-10 + 100µM LY2119620): 127.5% and 129.1% and 112.5%
- arrestin recruitment as % max effect of acetylcholin (iperoxo log [M] -7 + 0.1µM LY2119620): 171.1% and 186.3% and 156.7% and 161.0%
- arrestin recruitment as % max effect of acetylcholin (iperoxo log [M] -7 + 1µM LY2119620): 129.3% and 176.9% and 172.6%
- arrestin recruitment as % max effect of acetylcholin (iperoxo log [M] -7 + 3µM LY2119620): 210.7% and 168.6% and 182.6% and 172.8%
- arrestin recruitment as % max effect of acetylcholin (iperoxo log [M] -7 + 10µM LY2119620): 131.2% and 159.6% and 162.7% and 198.6%
- arrestin recruitment as % max effect of acetylcholin (iperoxo log [M] -7 + 30µM LY2119620): 161.3% and 181.0% and 168.2%
- arrestin recruitment as % max effect of acetylcholin (iperoxo log [M] -7 + 100µM LY2119620): 157.1% and 172.7% and 165.6%
- arrestin recruitment as % max effect of acetylcholin (iperoxo log [M] -8 + 0.1µM LY2119620): 168.3% and 154.3% and 173.5%
- arrestin recruitment as % max effect of acetylcholin (iperoxo log [M] -8 + 1µM LY2119620): 124.1% and 172.3% and 160.8% and 152.0%
- arrestin recruitment as % max effect of acetylcholin (iperoxo log [M] -8 + 3µM LY2119620): 158.0% and 166.2% and 162.4%
- arrestin recruitment as % max effect of acetylcholin (iperoxo log [M] -8 + 10µM LY2119620): 139.2% and 163.1% and 168.9% and 181.1%
- arrestin recruitment as % max effect of acetylcholin (iperoxo log [M] -8 + 30µM LY2119620): 176.5% and 174.9% and 157.1%
- arrestin recruitment as % max effect of acetylcholin (iperoxo log [M] -8 + 100µM LY2119620): 165.6% and 153.6% and 149.1%
- arrestin recruitment as % max effect of acetylcholin (iperoxo log [M] -9 + 0.1µM LY2119620): 127.2% and 148.3% and 150.9% and 143.2%
- arrestin recruitment as % max effect of acetylcholin (iperoxo log [M] -9 + 3µM LY2119620): 137.5% and 153.6% and 172.9% and 151.5%
- arrestin recruitment as % max effect of acetylcholin (iperoxo log [M] -9 + 10µM LY2119620): 118.8% and 155.2% and 169.6% and 149.0%
- arrestin recruitment as % max effect of acetylcholin (iperoxo log [M] -9 + 30µM LY2119620): 161.0% and 151.6% and 144.8% and 137.0%
- arrestin recruitment as % max effect of acetylcholin (iperoxo log [M] -9 + 100µM LY2119620): 158.6% and 154.0% and 158.3% and 124.7%
- arrestin recruitment as % max effect of acetylcholin (iperoxo log [M] -10 + 10µM LY2119620): 79.6% and 137.1%
- arrestin recruitment as % max effect of acetylcholin (iperoxo log [M] -10 + 30µM LY2119620): 112.5% and 108.5% and 109.4%
- arrestin recruitment as % max effect of acetylcholin (iperoxo log [M] -10 + 100µM LY2119620): 85.8% and 82.4% and 75.4%
